Laboratory results taken from patent US20170152239A1, “BENZAMIDE AND HETEROBENZAMIDE COMPOUNDS” (PFIZER INC., priority 2012, published 2017).

Target: WT EZH2 (EZH2 4 protein complex: EZH2, EED, SUZ12, RbAp48) (Homo sapiens, UniProt O75530+Q09028+Q15022+Q15910)
Test: WT EZH2 nucleosome assay
Format: biochemical
Conditions: nucleosome assay, 5 nM EZH2 4-protein complex, 1.5 μM SAM; read-out: WT EZH2 IC50
Method: Nucleosome Assay Protocol:
A. Compound preparation • 1. Prepare 10 mM stock solutions in 100% DMSO from solid material • 2. Serial dilute 10 mM compound stocks either 2 or 3-fold in 100% DMSO to generate compounds for 11 point dose response
B. Reagent preparation • 1. Prepare 1× assay buffer containing 100 mM Tris pH 8.5, 4 mM DTT and 0.01% Tween-20 • 2. Dilute purified HeLA oligonucleosomes and recombinant histone H1 (New England Biolabs) in assay buffer to 1.67×. • 3. Dilute EZH2 4 protein complex (EZH2, EED, SUZ12, RbAp48) to 3.5× in assay buffer • 4. Prepare 10×^3H SAM solution in assay buffer using 0.94 μCi/well of radioactive SAM (Perkin Elmer) and sufficient non-labeled SAM (Sigma) for 1.5 μM final concentration. • 5. Dilute TCA to 20% in DI water
C. Enzyme reaction • 1. Final reaction conditions are 5 nM EZH2 4-protein complex, 1.5 μM SAM, 25 μg/mL oligonucleosomes, 50 nM rH1 in a 50 μl reaction volume. • 2. Add 1 μl of diluted compound to the assay plate (96-well V-bottom polypropylene plates) or 1 μl of DMSO for control wells. • 3. Add 30 μl of nucleosomes to the assay plate • 4. Add 14 μl of EZH2 4 protein complex to the assay plate • 5. Add 5 μl of ^3H SAM to start the reaction. • 6. Stop the reaction after 60 minutes with the addition of 100 μl of 20% TCA • 7. Transfer 150 μl of quenched reaction into a prepared filterplate (Millipore #MSIPN4B10) • 8. Apply vacuum to the filterplate to filter the reaction mix through the membrane. • 9. Wash the filterplate with 8×200 μl of PBS, blot dry and dry in an oven for 30 minutes • 10. Add 50 μl of microscint-20 scintillation fluid (Perkin Elmer) to each well, wait 30 minutes and count on a liquid scintillation counter.
D. Data analysis • 1. IC50 values were determined by fitting the data to a 4-parameter IC50 equation using proprietary curve fitting software.
Wild type (WT) EZH2% Effect at 20 μM and IC50 values (μM) generated in WT EZH2 or EZH2PRC2 mutant Y641N nucleosome assays are provided in Table 3 below. A blank entry in the table indicates the data was not generated in that assay.

Chain of WT EZH2 (EZH2 4 protein complex: EZH2, EED, SUZ12, RbAp48) (Q15910 whole entry): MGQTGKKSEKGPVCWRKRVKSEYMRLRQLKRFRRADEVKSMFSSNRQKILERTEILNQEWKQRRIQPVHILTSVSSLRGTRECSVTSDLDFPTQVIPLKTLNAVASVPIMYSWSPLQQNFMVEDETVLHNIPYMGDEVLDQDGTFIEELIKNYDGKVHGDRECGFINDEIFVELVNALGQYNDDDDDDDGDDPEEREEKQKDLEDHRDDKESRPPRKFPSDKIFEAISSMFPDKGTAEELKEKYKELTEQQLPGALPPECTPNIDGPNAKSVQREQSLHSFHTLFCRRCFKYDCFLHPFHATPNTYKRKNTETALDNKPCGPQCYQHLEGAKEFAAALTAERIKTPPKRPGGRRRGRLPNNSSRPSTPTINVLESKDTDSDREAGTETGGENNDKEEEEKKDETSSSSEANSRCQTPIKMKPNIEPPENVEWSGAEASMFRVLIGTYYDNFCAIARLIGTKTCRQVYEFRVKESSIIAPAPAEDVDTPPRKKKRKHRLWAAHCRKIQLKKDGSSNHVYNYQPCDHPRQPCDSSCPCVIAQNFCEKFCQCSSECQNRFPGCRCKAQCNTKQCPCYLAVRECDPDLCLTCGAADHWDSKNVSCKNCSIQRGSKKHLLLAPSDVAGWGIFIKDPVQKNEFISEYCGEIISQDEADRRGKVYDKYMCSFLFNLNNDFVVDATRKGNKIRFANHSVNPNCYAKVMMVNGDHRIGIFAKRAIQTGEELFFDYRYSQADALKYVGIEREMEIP
Chain of WT EZH2 (EZH2 4 protein complex: EZH2, EED, SUZ12, RbAp48) (O75530 whole entry partner): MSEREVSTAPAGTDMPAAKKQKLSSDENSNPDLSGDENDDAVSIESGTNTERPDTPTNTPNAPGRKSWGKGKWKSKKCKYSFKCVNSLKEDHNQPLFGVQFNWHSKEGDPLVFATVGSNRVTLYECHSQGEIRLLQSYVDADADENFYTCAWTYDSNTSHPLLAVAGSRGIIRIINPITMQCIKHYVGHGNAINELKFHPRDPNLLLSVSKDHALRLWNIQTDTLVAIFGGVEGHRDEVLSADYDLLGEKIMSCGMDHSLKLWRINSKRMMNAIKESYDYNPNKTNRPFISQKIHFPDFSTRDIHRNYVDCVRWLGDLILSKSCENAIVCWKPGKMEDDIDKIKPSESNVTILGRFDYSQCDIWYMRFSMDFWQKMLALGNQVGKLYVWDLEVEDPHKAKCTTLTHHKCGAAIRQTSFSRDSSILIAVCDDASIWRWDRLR
Chain of WT EZH2 (EZH2 4 protein complex: EZH2, EED, SUZ12, RbAp48) (Q15022 whole entry partner): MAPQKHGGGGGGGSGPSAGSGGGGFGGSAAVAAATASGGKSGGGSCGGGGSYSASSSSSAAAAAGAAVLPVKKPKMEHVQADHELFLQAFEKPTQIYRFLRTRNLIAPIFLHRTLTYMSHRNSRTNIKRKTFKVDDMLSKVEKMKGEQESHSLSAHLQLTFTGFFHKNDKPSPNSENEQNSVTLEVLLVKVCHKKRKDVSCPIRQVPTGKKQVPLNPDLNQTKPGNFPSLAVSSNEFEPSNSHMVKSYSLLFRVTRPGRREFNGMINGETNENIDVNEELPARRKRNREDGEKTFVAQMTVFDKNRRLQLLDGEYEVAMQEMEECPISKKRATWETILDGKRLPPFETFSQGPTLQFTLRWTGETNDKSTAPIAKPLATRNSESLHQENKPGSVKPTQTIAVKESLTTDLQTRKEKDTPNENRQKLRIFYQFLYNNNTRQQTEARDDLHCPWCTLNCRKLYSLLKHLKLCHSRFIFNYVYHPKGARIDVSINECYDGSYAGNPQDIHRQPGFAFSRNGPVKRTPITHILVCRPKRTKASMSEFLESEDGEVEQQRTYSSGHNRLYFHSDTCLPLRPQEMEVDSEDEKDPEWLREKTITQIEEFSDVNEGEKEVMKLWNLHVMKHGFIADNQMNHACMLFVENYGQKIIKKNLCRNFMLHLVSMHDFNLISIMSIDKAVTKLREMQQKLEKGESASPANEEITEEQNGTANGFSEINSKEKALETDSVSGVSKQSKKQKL
Chain of WT EZH2 (EZH2 4 protein complex: EZH2, EED, SUZ12, RbAp48) (Q09028 whole entry partner): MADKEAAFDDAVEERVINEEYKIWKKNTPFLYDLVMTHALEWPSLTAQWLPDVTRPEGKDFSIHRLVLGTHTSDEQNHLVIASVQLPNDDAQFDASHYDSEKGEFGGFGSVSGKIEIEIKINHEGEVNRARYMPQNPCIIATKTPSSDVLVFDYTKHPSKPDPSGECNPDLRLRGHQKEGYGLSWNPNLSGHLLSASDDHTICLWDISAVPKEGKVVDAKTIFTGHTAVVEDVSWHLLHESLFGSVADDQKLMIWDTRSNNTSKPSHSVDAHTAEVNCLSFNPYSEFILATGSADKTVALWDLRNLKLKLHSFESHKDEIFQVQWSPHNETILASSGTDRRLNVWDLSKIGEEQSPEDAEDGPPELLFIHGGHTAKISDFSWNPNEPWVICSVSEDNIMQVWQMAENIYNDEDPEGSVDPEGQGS

| Structure (SMILES) | IC50 [µM] |
| --- | --- |
| CNc1ncc(-c2nc(C(=O)NCc3c(C)cc(C)[nH]c3=O)c(C)c(-c3ccnn3C)n2)cn1 [Example 47, N-[(4,6-dimethyl-2-oxo-1,2-dihydropyridin-3-yl)methyl]-5-methyl-2′-(methylamino)-6-(1-methyl-1H-pyrazol-5-yl)-2,5′-bipyrimidine-4-carboxamide] | 1.7 |
| Cc1cc(C)c(CNC(=O)c2cc(Cl)cc(-n3ncnc3C)c2C)c(=O)[nH]1 [Example 49, 5-chloro-N-[(4,6-dimethyl-2-oxo-1,2-dihydropyridin-3-yl)methyl]-2-methyl-3-(5-methyl-1H-1,2,4-triazol-1-yl)benzamide] | 1.95 |
| Cc1cc(C)c(CNC(=O)c2nc(-c3cnc(N(C)C)nc3)nc(-c3ccnn3C)c2C)c(=O)[nH]1 [Example 51, 2′-(dimethylamino)-N-[(4,6-dimethyl-2-oxo-1,2-dihydropyridin-3-yl)methyl]-5-methyl-6-(1-methyl-1H-pyrazol-5-yl)-2 ,5′-bipyrimidine-4-carboxamide] | 2.11 |
| Cc1cc(C)c(CNC(=O)c2cc(Cl)cc(-n3nnnc3C)c2C)c(=O)[nH]1 [Example 52, 5-chloro-N-[(4,6-dimethyl-2-oxo-1,2-dihydropyridin-3-yl)methyl]-2-methyl-3-(5-methyl-1H-tetrazol-1-yl)benzamide] | 2.46 |
| Cc1cc(C)c(CNC(=O)c2ncnc(N3CCCC3C(F)(F)F)c2C)c(=O)[nH]1 (centres unmarked) [Example 53, N-[(4,6-dimethyl-2-oxo-1,2-dihydropyridin-3-yl)methyl]-5-methyl-6-[2-(trifluoromethyl)pyrrolidin-1-yl]pyrimidine-4-carboxamide] | 2.52 |
| Cc1cc(C)c(CNC(=O)c2nc(C3CC3)nc(N3CCC[C@@H]3C)c2C)c(=O)[nH]1 [Example 54, 2-cyclopropyl-N-[(4,6-dimethyl-2-oxo-1,2-dihydropyridin-3-yl)methyl]-5-methyl-6-[(2S)-2-methylpyrrolidin-1-yl]pyrimidine-4-carboxamide] | 2.83 |
| Cc1cc(C)c(CNC(=O)c2nc(N3[C@@H]4CC[C@H]3COC4)nc(N3CCC[C@@H]3C)c2C)c(=O)[nH]1 [Example 55, N-[(4,6-dimethyl-2-oxo-1,2-dihydropyridin-3-yl)methyl]-5-methyl-6-[(2S)-2 - methylpyrrolidin-1-yl]-2-[(1R,5S)-3-oxa-8-azabicyclo[3.2.1]oct-8-yl]pyrimidine-4-carboxamide] | 2.89 |
| Cc1cc(C)c(CNC(=O)c2nc(N3C[C@@H]4[C@@H](N)[C@@H]4C3)nc(-c3ccnn3C)c2C)c(=O)[nH]1 [Example 56, 2-[(1R,5S,6S)-6-amino-3-azabicyclo[3.1.0]hex-3-yl]-N-[(4,6-dimethyl-2-oxo-1,2-dihydropyridin-3-yl)methyl]-5-methyl-6-(1-methyl-1H-pyrazol-5-yl)pyrimidine-4-carboxamide] | 3.18 |
| Cc1cc(C)c(CNC(=O)c2nc(OC(C)C)nc(N3CCC[C@@H]3C)c2C)c(=O)[nH]1 [Example 57, N-[(4,6-dimethyl-2-oxo-1,2-dihydropyridin-3-yl)methyl]-2-isopropoxy-5-methyl-6-[(2S)-2 - methylpyrrolidin-1-yl]pyrimidine-4-carboxamide] | 3.2 |
| Cc1cc(C)c(CNC(=O)c2nc(N3C[C@@H]4C[C@H]3CO4)nc(N3CCC[C@@H]3C)c2C)c(=O)[nH]1 [Example 58, N-[(4,6-dimethyl-2-oxo-1,2-dihydropyridin-3-yl)methyl]-5-methyl-6-[(2S)-2 - methylpyrrolidin-1-yl]-2-[(1S,4S)-2-oxa-5-azabicyclo[2.2.1]hept-5-yl]pyrimidine-4-carboxamide] | 3.52 |
| Cc1cc(C)c(CNC(=O)c2ncnc(N3CCCC3(C)C)c2C)c(=O)[nH]1 [Example 59, N-[(4,6-dimethyl-2-oxo-1,2-dihydropyridin-3-yl)methyl]-6-(2,2-dimethylpyrroli-din-1-yl)-5-methylpyrimidine-4-carboxamide] | 3.91 |
| CCc1nncn1-c1cc(Cl)cc(C(=O)NCc2c(C)cc(C)[nH]c2=O)c1C [Example 61, 5-chloro-N-[(4,6-dimethyl-2-oxo-1,2-dihydropyridin-3-yl)methyl]-3-(3-ethyl-4H-1,2,4-triazol-4-yl)-2-methylbenz-amide] | 4.21 |
| Cc1cc(C)c(CNC(=O)c2cc(Cl)cc(-n3c(C)nnc3C)c2C)c(=O)[nH]1 [Example 62, 5-chloro-N-[(4,6-dimethyl-2-oxo-1,2-dihydropyridin-3-yl)methyl]-3-(3,5-dimethyl-4H-1,2,4-triazol-4-yl)-2-methylbenz-amide] | 4.22 |
| Cc1cc(C)c(CNC(=O)c2cc(Cl)cc(-n3nccc3C)c2C)c(=O)[nH]1 [Example 63, 5-chloro-N-[(4,6-dimethyl-2-oxo-1,2-dihydropyridin-3-yl)methyl]-2-methyl-3-(5-methyl-1H-pyrazol-1-yl)benzamide] | 4.38 |
| Cc1cc(C)c(CNC(=O)c2cccc(-c3c(C)ncnc3C)c2C)c(=O)[nH]1 [Example 64, N-[(4,6-dimethyl-2-oxo-1,2-dihydropyridin-3-yl)methyl]-3-(4,6-dimethylpyrimi-din-5-yl)-2-methylbenz-amide] | 4.42 |
| COC1CCN(c2nc(C(=O)NCc3c(C)cc(C)[nH]c3=O)c(C)c(-c3ccnn3C)n2)CC1 [Example 68, N-[(4,6-dimethyl-2-oxo-1,2-dihydropyridin-3-yl)methyl]-2-(4-methoxypiperi-din-1-yl)-5-methyl-6-(1-methyl-1H-pyrazol-5-yl)pyrimidine-4-carboxamide] | 5.19 |
| Cc1cc(C)c(CNC(=O)c2ccnc(N3CCC[C@@H]3C)c2Cl)c(=O)[nH]1 [Example 69, 3-chloro-N-[(4,6-dimethyl-2-oxo-1,2-dihydropyridin-3-yl)methyl]-2-[(2S)-2-methylpyrroli-din-1-yl]isonicotinamide] | 5.19 |
| Cc1cc(C)c(CNC(=O)c2cccc(-c3c(C)nn(C)c3C)c2C)c(=O)[nH]1 [Example 70, N-[(4,6-dimethyl-2-oxo-1,2-dihydropyridin-3-yl)methyl]-2-methyl-3-(1,3,5-trimethyl-1H-pyrazol-4-yl)benzamide] | 5.21 |

More lines, now with the values ahead:

| IC50 [µM] | Structure (SMILES) |
| --- | --- |
| 6.33 | Cc1cc(C)c(CNC(=O)c2ncnc(N3CCC[C@@H]3C)c2C)c(=O)[nH]1 [Example 71, N-[(4,6-dimethyl-2-oxo-1,2-dihydropyridin-3-yl)methyl]-5-methyl-6-[(2S)-2-methylpyrroli-din-1-yl]pyrimidine-4-carboxamide] |
| 6.37 | CSc1nc(C(=O)NCc2c(C)cc(C)[nH]c2=O)c(C)c(-c2ccnn2C)n1 [Example 72, N-[(4,6-dimethyl-2-oxo-1,2-dihydropyridin-3-yl)methyl]-5-methyl-6-(1-methyl-1H-pyrazol-5-yl)-2-(methylthio) pyrimidine-4-carboxamide] |
| 6.5 | Cc1cc(C)c(CNC(=O)c2ncnc(N3CCC(C)(C)C3)c2C)c(=O)[nH]1 [Example 73, N-[(4,6-dimethyl-2-oxo-1,2-dihydropyridin-3-yl)methyl]-6-(3,3-dimethylpyrroli-din-1-yl)-5-methylpyrimi-dine-4-carboxamide] |
| 6.61 | Cc1cc(C)c(CNC(=O)c2nc(OCc3cncnc3)nc(-c3ccnn3C)c2C)c(=O)[nH]1 [Example 74, N-[(4,6-dimethyl-2-oxo-1,2-dihydropyridin-3-yl)methyl]-5-methyl-6-(1-methyl-1H-pyrazol-5-yl)-2-(pyrimidin-5-ylmethoxy)pyri-midine-4-carboxamide] |
| 6.78 | Cc1cc(C)c(CNC(=O)c2ncnc(N3CCOC[C@@H]3C)c2C)c(=O)[nH]1 [Example 75, N-[(4,6-dimethyl-2-oxo-1,2-dihydropyridin-3-yl)methyl]-5-methyl-6-[(3S)-3-methylmorph-olin-4-yl]pyrimidine-4-carboxamide] |
| 6.94 | Cc1cc(C)c(CNC(=O)c2cccc(-c3c(C#N)cnn3C)c2C)c(=O)[nH]1 [Example 76, 3-(4-cyano-1-methyl-1H-pyrazol-5-yl)-N-[(4,6-dimethyl-2-oxo-1,2-dihydropyridin-3-yl)methyl]-2-methylbenz-amide] |
| 7.31 | Cc1cc(C)c(CNC(=O)c2cc(Cl)cc(-n3cnnc3C)c2C)c(=O)[nH]1 [Example 78, 5-chloro-N-[(4,6-dimethyl-2-oxo-1,2-dihydropyridin-3-yl)methyl]-2-methyl-3-(3-methyl-4H-1,2,4-triazol-4-yl)benzamide] |
| 7.53 | Cc1cc(C)c(CNC(=O)c2nc(-c3cncnc3)nc(-c3ccnn3C)c2C)c(=O)[nH]1 [Example 80, N-[(4,6-dimethyl-2-oxo-1,2-dihydropyridin-3-yl)methyl]-5-methyl-6-(1-methyl-1H pyrazol-5-yl)-2,5′-bipyrimidine-4-carboxamide] |
